Source: BigSolDB 2.1

COc1c2occc2c(OC)c2c(=O)cc(C)oc12
solubility (mole fraction)
Details	in DMSO	in ethanol	in isopropanol	in methanol	in n-butanol	in water
298.15 K	0.0128	0.00255	0.00195	0.00271	0.00355	1.33e-05
303.15 K	0.0131	0.00282	0.002	0.00272	0.00375	1.23e-05
308.15 K	0.0131	0.00298	0.00209	0.003	0.00372	1.88e-05
313.15 K	0.0132	0.00311	0.00228	0.00314	0.00399	1.88e-05
318.15 K	0.0141	0.00338	0.00233	0.00318	0.00435	3.69e-05
323.15 K	0.0152	0.00338	0.00253	0.00332	0.00529	9.02e-05

Details	solubility (mole fraction)
in PEG-200, 298.15 K	0.00171
in PEG-200, 303.15 K	0.00149
in PEG-200, 308.15 K	0.00173
in PEG-200, 313.15 K	0.00199
in PEG-200, 318.15 K	0.00202
in PEG-200, 323.15 K	0.00231
in PEG-400, 298.15 K	0.00438
in PEG-400, 303.15 K	0.00425
in PEG-400, 308.15 K	0.00448
in PEG-400, 313.15 K	0.00453
in PEG-400, 318.15 K	0.00448
in PEG-400, 323.15 K	0.00511
